Laboratory results: patent publication US9353051B2, “Antiviral drugs for treatment or prevention of dengue infection” (Siga Technologies Inc., priority 2007, dated 2016)
Where two headings read alike, the source gives them in different places.

Key:
Den-3 = test: viral yield assay against Den-3; type: cell-based; conditions: Dengue virus
Modoc = test: specificity: activity against Modoc; type: cell-based, murine flavivirus; conditions: Orthoflavivirus, in Mus musculus
Protocol: (§1) Select compounds were also tested for more broad spectrum activity against other members of the Flaviviridae family including Modoc, which is a murine flavivirus, as well as Bovine Viral Diarrhea Virus (BVDV), which is a Pestivirus. Since dengue virus is able to replicate in multiple cell lines and to ensure that the activity seen in vero cells is consistent, select compounds were also tested for their effective concentration in a viral yield assay against dengue-2 in C6/36 mosquito cells.

[1] = test system: Dengue-2 (Strain New Guinea C); test: viral yield assay against Dengue-2 in Vero cells; type: cell-based; conditions: Dengue virus; for EC90: read-out: EC90 Yield Den-2
Outline: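 Vero cells infected with dengue-2 at MOI 0.1 were treated with compound (DMSO control) at 37° C., harvested 48 h post infection and titered on Vero cells.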

[2] = test system: Bovine Viral Diarrhea Virus (BVDV); test: specificity: activity against BVDV; type: cell-based
Protocol: as §1

Den-4 = test: viral yield assay against Den-4; type: cell-based; conditions: Dengue virus
[3] = test system: dengue-2 in C6/36 mosquito cells; test: viral yield assay against dengue-2 in C6/36 mosquito cells; type: cell-based; conditions: Dengue virus, dengue-2, C6/36 mosquito cells, read-out: Specificity C6/36
Protocol: as §1

Den-1 = test: viral yield assay against Den-1; type: cell-based; conditions: Dengue virus
dengue [4] = conditions: mouse model; cited from earlier work
dengue [5] = conditions: cited from earlier work
[6] = Vero cells, MOI 0.1, harvested 48 hours post infection, read-out: Activity (anti-dengue 2 viral activity, EC50)
[7] = viral yield assay, Vero cells, read-out: EC50 Yield Den-2
[8] = Bovine viral diarrhea virus isolates and strains, read-out: Specificity BVDV
[9] = Bovine viral diarrhea virus isolates and strains; read-out: Specificity BVDV

Row | SMILES | EC50 (Den-3) | EC90 (Den-3) | EC50 (Modoc) | EC50 [1, 6] | EC50 [1, 7] | EC90 ([1]; viral yield assay, Vero cells) | EC50 [2, 8] | EC50 (Den-4) | EC90 (Den-4) | EC50 [3] | EC50 (Den-1) | EC90 (Den-1) | EC50 [2, 9] | EC50 ([1]; Vero, 48 h, read-out: Activity (anti-dengue 2 viral activity, EC50)) | protection against dengue (dengue [4]) | adverse effects induced (dengue [5]; animal models of dengue (mouse or rhesus monkey, not specified)) | protection against dengue (dengue [5]; rhesus monkey model)
1 | CCN(CC)S(=O)(=O)c1ccc(NC(=O)Cn2cnc3ccccc3c2=O)cc1 [Compound 1, N-(4-Diethylsulfamoyl-phenyl)-2-(4-oxo-4H-quinazolin-3-yl)-acetamide] | 1 µM | 8.2 µM | 1.2 µM | < 1 µM | 0.3 µM | 5.2 µM | > 50 µM | 1.7 µM | 4.1 µM | 0.3 µM | 4.3 µM | 10.7 µM | – | – | – | – | –
2 | CCN(CC)S(=O)(=O)c1ccc(OC)c(NC(=O)C(C)C)c1 [Compound 2, N-(5-Diethylsulfamoyl-2-methoxy-phenyl)-isobutyramide] | 5.5 µM | 13.3 µM | 6.2 µM | < 1 µM | 0.3 µM | 4.1 µM | > 50 µM | 2.1 µM | 12.5 µM | 0.7 µM | 7.6 µM | 8.9 µM | – | – | – | – | –
3 | CCN(CC)S(=O)(=O)c1ccc(NC(=O)Cn2nnc3ccccc3c2=O)cc1 [Compound 3, N-(4-Diethylsulfamoyl-phenyl)-2-(4-oxo-4H-benzo[d][1,2,3]triazin-3-yl)-acetamide] | 1 µM | 12.1 µM | 3.1 µM | 1 to 10 µM | 4 µM | 10 µM | > 50 µM | 2.3 µM | 10 µM | – | 1.3 µM | 5.1 µM | – | – | – | – | –
4 | CCN(CC)S(=O)(=O)c1ccc(NC(=O)Cn2cnc3c2c(=O)n(C)c(=O)n3C)cc1 [Compound 4, N-(4-Diethylsulfamoyl-phenyl)-2-(1,3-dimethyl-2,6-dioxo-1,2,3,6-tetrahydro-purin-7-yl)-acetamide] | 13.5 µM | 22.6 µM | > 25 µM | 1 to 10 µM | 7.8 µM | 8.9 µM | – | 4.3 µM | 22.7 µM | – | – | – | > 50 µM | – | – | – | –
5 | CCN(CC)S(=O)(=O)c1ccc(C)c(NC(=O)Cn2cnc3cc([N+](=O)[O-])ccc3c2=O)c1 [Compound 12, N-(5-Diethylsulfamoyl-2-methyl-phenyl)-2-(7-nitro-4-oxo-4H-quinazolin-3-yl)-acetamide] | 2.9 µM | > 25 µM | > 25 µM | – | 11.1 µM | > 25 µM | > 50 µM | 5.2 µM | 14.6 µM | – | > 25 µM | > 25 µM | – | 1 to 10 µM | – | – | –
6 | CCN(CC)S(=O)(=O)c1ccc(OC)c(NC(=O)Cn2cnc3c2c(=O)n(C)c(=O)n3C)c1 [Compound 13, N-(5-Diethylsulfamoyl-2-methoxy-phenyl)-2-(1,3-dimethyl-2,6-dioxo-1,2,3,6-tetrahydro-purin-7-yl)-acetamide] | 4.1 µM | 9.4 µM | > 25 µM | 1 to 10 µM | 2.4 µM | 10.3 µM | 47.7 µM | 1.9 µM | 9.2 µM | 2.1 µM | 7.1 µM | 8.5 µM | – | – | – | – | –
7 | CCCC(=O)Nc1cc(S(=O)(=O)N(CC)CC)ccc1OC [Compound 14, N-(5-Diethylsulfamoyl-2-methoxy-phenyl)-butyramide] | 4.2 µM | 14.9 µM | > 25 µM | 1 to 10 µM | 3.6 µM | 27.5 µM | – | 4.8 µM | 11.1 µM | – | > 25 µM | > 25 µM | > 50 µM | – | – | – | –
8 | CCN(CC)S(=O)(=O)c1ccc(OC)c(NC(=O)CC(C)C)c1 [Compound 15, N-(5-Diethylsulfamoyl-2-methoxy-phenyl)-3-methyl-butyramide] | – | – | 10.1 µM | 1 to 10 µM | 2.4 µM | > 100 µM | > 50 µM | 1.2 µM | 37.2 µM | – | – | – | – | – | – | – | –
9 | CCN(CC)S(=O)(=O)c1ccc(OC)c(NC(=O)Cc2ccccc2)c1 [Compound 16, N-(5-Diethylsulfamoyl-2-methoxy-phenyl)-2-phenyl-acetamide] | – | – | 3.6 µM | 1 to 10 µM | 5.8 µM | 10.3 µM | > 50 µM | 2.1 µM | 6.4 µM | – | – | – | – | – | – | – | –
10 | CCCCC(=O)Nc1cc(S(=O)(=O)N(CC)CC)ccc1OC [Compound 21, Pentanoic acid (5-diethylsulfamoyl-2-methoxy-phenyl)-amide] | – | – | 6 µM | 10 to 25 µM | 14.2 µM | 24.1 µM | > 50 µM | 8.2 µM | 12 µM | – | – | – | – | – | – | – | –
11 | NC(=O)c1ncn([C@@H]2O[C@H](CO)[C@@H](O)[C@H]2O)n1 [ribavirin] | – | – | – | – | – | – | – | – | – | – | – | – | – | – | did not show protection | induced anemia and thrombocytosis | did not show protection
